This is an account of results in US12617799B2, “Pyrazolopyrimidinone compounds” (Orphagen Pharmaceuticals, Inc., priority 2021, dated 2026).

For assay [1], the system named is rat Leydig tumor cell line R2C. The experiment in a line: R2C proliferation assay for SF-1 antagonists (EdU incorporation). It is filed as cell-based. Particulars: R2C, read-out: R2C: EC50. As for the experimental part:
SF-1 regulates progenitor cell formation and survival in adult Leydig cells. Anti-proliferative effects of SF-1 antagonists using a SF-1+ rat Leydig tumor cell line, R2C, was investigated. Cell proliferation was measured by detecting DNA incorporation of EdU, a nucleoside analogue that can be fluorescently tagged after cell fixation.
Proliferation of the rat Leydig tumor cell line R2C (ATCC® CCL-97™) was assessed using 5-ethynyl-2′-deoxyuridine (EdU), a nucleoside analogue incorporated during DNA synthesis that can be fluorescently tagged after cell fixation. Cycloheximide, a protein synthesis inhibitor, was used as a positive control for the assay.
R2C cells are maintained according to a protocol provided by the American Type Culture Collection (ATCC). At the time of assay, R2C cells were diluted to 1.0 million cells/mL with culture medium (F12 medium supplemented with 2% FBS and 1% Penicillin-Streptomycin) and 50 uL of cell suspension seeded into each well of 384-well clear bottom plates. The assay plates were incubated in a humidified, 37° C., 6% CO2 atmosphere for 24 hours. Serially diluted SF-1 antagonists, cycloheximide or vehicle (DMSO) were then applied to the R2C cells and incubated in a humidified, 37° C., 6% CO2 atmosphere for two days. EdU (Invitrogen), at a final concentration of 5 μM, was added to the cells and incubated for an additional 16 hours, after which cells were fixed with 10% formalin.
Cells were then washed and permeabilized in 0.5% TritonX-100/PBS solution at RT for 1 hour. EdU incorporation was detected by labeling EdU with 6-FAM azide (Lumiprobe) using a copper (I)-catalyzed Click reaction between an azide and alkyne. The reaction mixture consists of 5 mM ascorbic acid, 1 mM CuSO4, 1 μM 6-FAM azide dissolved in PBS buffer. […] For data normalization, the average fluorescence of DMSO wells was defined as 100%, and average fluorescence of 10 μM cycloheximide wells was defined as 0%. Curve fitting and EC50 determination were performed using the variable slope sigmoidal dose-response analysis.
R2C cells were routinely cultured in R2C culture medium. To assay SF-1 antagonist inhibitory activity, R2C cells were resuspended in the R2C plating medium and plated into a 384 well-clear bottom black plate at 20,000 cells/50 μL/well. […] 10 μL EdU plating solution were then dispensed into each well of assay plate incubated at 37° C., 6% CO2 for two days.
R2C proliferation is measured by detecting the fluorescent labelled EdU. The R2C assay plates were fixed by dispense 60 μL of 10% formalin into each well, and the plates were incubated at room temperature for 1 hour on an orbital shaker. The plates were washed with 80 μL of PBS three times, and cells were permeabilized by treating with 100 μL of PBS-0.5% TritonX-100 at RT for 1 hour on an orbital shaker. The plates were washed with 80 μL of PBS three times, and after the last wash, 25 μL of PBS was dispensed into each well. 25 μL of 2× mounting mix solution was then added into each well of fixed cells, and the plates were incubated at RT for 30 min in the dark on an orbital shaker. The cells were washed with 80 μL of PBS, three times, and after the last wash, 25 μL of PBS was dispensed into each well. […] The cells were washed with 80 μL of PBS, three times, and after the last wash, 50 μL of PBS was dispensed into each well. Assay plates were sealed with aluminum foil, and fluorescence was measured using a Envision microplate reader.
The % of control for the proliferation activity was calculated according to the following equation: % of control=100×(A−C)/(B−C) Equation • A: fluorescence count in the test article-treated R2C cells • B: mean fluorescence count in the vehicle-treated R2C cells • C: mean fluorescence count in the 10 μM cycloheximide-treated R2C cells

A further assay has as its target T1, human SF-1 (Homo sapiens, UniProt Q13285).
T1 construct: expressed in transfected cells; host or cells: CHO-K1 cells (Chinese hamster ovary), transient cotransfection with pG5luc
The assay can be described thus: SF-1 Luc assay (Gal4DBD-SF-1LBD luciferase reporter in transfected CHO-K1 cells). The format is cell-based. Particulars: CHO-K1 cells transfected with GAL4-SF-1 plasmid, 40 hours incubation; read-out: hSF-1-Luc: EC50. The text has this:
BamHI and XbaI sites introduced by the primers […] (forward) and […] (reverse) were used for subcloning the amplicon into pFA-CMV.
Cells were routinely cultured by splitting them from 1:10 to 1:20. […] Four hours after transfection, cells were trypsinized and suspended to a concentration of 1.6×10^5 cells/ml in supplemented Ham's F-12 media.
Assays: The collected cells were resuspended in the culture medium and plated into a 384 well-white plate (Corning Life Sciences, Acton, MA) at 8,000 cells/50 μL/well.
Measurement of SF-1 Transcriptional Activity: SF-1 transcriptional activity was detected as the intracellular Luc activity using SteadyLite Plus HTS Reporter Gene Assay System. After the measurement of the cell viability, the culture media in the 384 well-plate were completely removed. Then, 30 μL of the Luc substrate solution was added into each well and incubated for 10 min at room temperature. After the incubation, luminescence of each well was measured by a microplate reader.
Calculation of the SF-1 Transcriptional Activity (% of Control): The % of control for the transcriptional activity was calculated according to the following equation: % of control=A/B×100 Equation • A: luminescence count in the test article-treated CHO cells transfected with GAL4-SF-1 plasmid • B: mean luminescence count in the vehicle-treated CHO cells transfected with GAL4-SF-1 plasmid

T1 sequence (Q13285 198-461 limits assumed): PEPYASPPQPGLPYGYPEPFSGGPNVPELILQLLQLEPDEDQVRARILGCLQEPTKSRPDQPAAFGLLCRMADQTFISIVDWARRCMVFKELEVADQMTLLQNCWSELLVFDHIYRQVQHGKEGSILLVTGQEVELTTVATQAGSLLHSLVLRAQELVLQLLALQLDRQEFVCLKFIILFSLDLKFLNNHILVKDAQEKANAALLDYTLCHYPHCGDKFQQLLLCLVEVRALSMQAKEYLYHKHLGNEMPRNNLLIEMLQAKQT

As to `CCn1nc(Nc2ccc(C(F)(F)F)cc2)c2ncn(CC(=O)Nc3ccc(OC)c(F)c3)c(=O)c21` [Compound 77, 2-(1-ethyl-7-oxo-3-((4-(trifluoromethyl)phenyl)amino)-1,7-dihydro-6H-pyrazolo[4,3-d]pyrimidin-6-yl)-N-(3-fluoro-4-methoxyphenyl)acetamide], the EC50 (in assay [1]; on human SF-1) was less than 200 nM in each case.
For `CCn1nc(Nc2ccc(C(F)(F)F)cc2)c2ncn(CC(=O)N[C@H]3CC[C@H](OC(F)F)CC3)c(=O)c21` [Compound 80, N-((1r,4r)-4-(difluoromethoxy)cyclohexyl)-2-(1-ethyl-7-oxo-3-((4-(trifluoromethyl)phenyl)amino)-1,7-dihydro-6H-pyrazolo[4,3-d]pyrimidin-6-yl)acetamide], the EC50 (in assay [1]; at human SF-1) was less than 200 nM in each case.
Take `CCn1nc(Nc2ccc(C(F)(F)F)cc2)c2ncn(CC(=O)N[C@H]3CC[C@H](OCC(C)(C)O)CC3)c(=O)c21` [Compound 84, 2-(1-ethyl-7-oxo-3-((4-(trifluoromethyl)phenyl)amino)-1,7-dihydro-6H-pyrazolo[4,3-d]pyrimidin-6-yl)-N-((1r,4r)-4-(2-hydroxy-2-methylpropoxy)cyclohexyl)acetamide]: the EC50 (in assay [1]; on human SF-1) was less than 200 nM each time.
Turning to `CC(C)(O)CO[C@H]1CC[C@H](NC(=O)Cn2cnc3c(Nc4ccc(C(F)(F)F)cc4)nn(CC(F)(F)F)c3c2=O)CC1` [Compound 92, N-((1r,4r)-4-(2-hydroxy-2-methylpropoxy)cyclohexyl)-2-(7-oxo-1-(2,2,2-trifluoroethyl)-3-((4-(trifluoromethyl)phenyl)amino)-1,7-dihydro-6H-pyrazolo[4,3-d]pyrimidin-6-yl)acetamide], the EC50 (in assay [1]; at human SF-1) was 200 to 1000 nM in each case.
As for `COc1ccc(NC(=O)Cn2cnc3c(Nc4ccc(C(F)(F)F)cc4)nn(C(C)C)c3c2=O)cc1F` [Compound 98, N-(3-fluoro-4-methoxyphenyl)-2-(1-isopropyl-7-oxo-3-((4-(trifluoromethyl)phenyl)amino)-1,7-dihydro-6H-pyrazolo[4,3-d]pyrimidin-6-yl)acetamide], the EC50 in assay [1] was in the range of 1000 to 10000 nM; on human SF-1 it was 200 to 1000 nM.
